“Also recorded” adds a separate entry of the source.
What was measured:
[1] = system: contaminating host cell proteins with hydrolase (carboxylesterase) activity in antibody solutions; assay: OPTS assay on antibody preparations (drug substance samples); type: biochemical, CHO K1 or DG44 cells; details: orlistat 10 μM, PMSF 1 mM, EDTA 10 mM; all 9 antibody samples
Excerpt: In order to be able to determine the enzymatic activity, a substrate, 1-octanoyloxy-pyrene-3,6,8-trisulfonic acid trisodium salt (OPTS), was chosen. Its hydrolytic product, 1-hydroxypyrene-3,6,8-trisulfonic acid trisodium salt (HPTS), can be detected by fluorescence spectroscopy. The change in the fluorescence signal over time is directly related to the change in the concentration of free fluorophore. The conversion was made possible by setting up a calibration curve with a subsequent linear fit (R^2≥0.99). The experiments of the kinetics measurements with the OPTS/4-MUD substrates assay were performed in duplicates. The reaction mixture without the protein of interest, which served as the respective control, was subtracted from the protein-containing batch. The buffer used for OPTS measurements (hydrophilic substrate) contained 0.3 M HOAc, 0.3 M MES, 0.6 M TRIS and 0.6 M NaCl (4×AMT buffer; acetate, MES, TRIS). For 4-MUD substrate measurements (lipophilic substrate) 0.04 M CHAPS was added in addition. […] All measurements were carried out in multiwell plates with a preparation volume of 300 μL (75 μL 4×AMT buffer, 30 μL substrate, 75 μL enzyme-containing solution, x μL additive, 300 μL ad. H2O) Unless otherwise stated, all fluorescence spectroscopic measurements were performed using 96-well, clear-bottom, non-binding plates (Greiner, Austria) on a SpectraMax M3 PlateReader (Molecular Device, USA) and recorded using SoftMax Pro 7.0.3 software (Molecular Device, USA). […] For evaluation, the detected fluorescence signal for a reaction mix without protein of interest (control) was subtracted from the reaction mix with protein of interest (e.g. DS). Hydrolysis of the substrate has been measured by detecting the fluorescence intensity of the released chromophore (4-MU or HPTS) immediately following mixing in real-time for a few minutes up to 5 hours depending on fluorescence intensity. The changes in the fluorescence signal over time were subsequently converted to hydrolytic activity using previously established calibration curves with a linear fit (R^2≥0.99). […]

[2] = system: purified commercially available lipase (lysosomal lipase); assay: 4-MUD assay on a purified commercially available lipase; type: biochemical; details: 10 μM orlistat, 1 mM PMSF, 10 mM EDTA; pH 5.5
Procedure: The target concentration of OPTS was 25 μM and the target concentration of 4-MUD was 30 μM. For preparing a master mix, 4×AMT buffer was mixed with the appropriate volume of H2O in a Falcon tube. The dialysed antibody (Ab) preparation samples (drug substance) or control solutions (75 μl) were transferred to 96 well plates. Optional inhibitors (10 μM orlistat, 1 mM PMSF and 10 mM EDTA) were added to the master mix comprising 4×AMT buffer and water and substrate (3 μl/sample 3 mM 4-MUD in DMSO or […] 250 μM OPTS in H2O, aliquoted and frozen). The 4-MUD substrate was stored at a concentrated stock solution comprising 3 mM 4-methylumbelliferyl decanoate (4-MUD; FM25973, Carbosynth) in DMSO resulting in a 100× stock solution for use comprising […] in DMSO. The 250 μM OPTS stock solution was prepared in H2O, aliquoted and frozen until use. […] The reaction was then started by adding the master mix (reaction solution) to the protein solution or control solution, respectively. The measurement was started immediately. The measuring time was 30 min and the measuring intervals 15 s. Stock solutions of the inhibitors were used as follows: 300 μM orlistat (Sigma-Aldrich, USA) in DMSO, 100 mM PMSF (Roth, Germany) in isopropanol and 500 mM EDTA (Sigma-Aldrich, USA) in H2O.
(§1) To generate pH profiles of the protein solutions, kinetic measurements were carried out as described above at the indicated pH value. The added AMT buffer was adjusted to the pH indicated in a range of pH 4-8 (0.5 steps) and the kinetics were recorded for each pH value.
Further, a purified commercially available lipase with unknown substrate specificity was analysed using the 4-MUD and OPTS assay. First, hydrolysis of both soluble (OPTS) and hydrophobic (4-MUD) carboxyl esters, as well as the influence of orlistat, PMSF and EDTA on the hydrolytic activity of the lipase were investigated.
Furthermore, the lipase was tested for its pH dependence in the OPTS and 4-MUD substrate assays. For this purpose, the hydrolytic activity was examined at pH=4-8.

[3] = system: contaminating host cell proteins with hydrolytic (lipase) activity in antibody solutions; assay: 4-MUD assay on antibody preparations (drug substance samples); type: biochemical, CHO K1 or DG44 cells; details: all 9 antibody samples; for effect of inhibitor on hydrolytic activity in the 9 antibody samples, 4-MUD assay: orlistat 10 μM, PMSF 1 mM, EDTA 10 mM
Excerpt: In order to be able to determine the enzymatic activity, a substrate, 1-octanoyloxy-pyrene-3,6,8-trisulfonic acid trisodium salt (OPTS), was chosen. Its hydrolytic product, 1-hydroxypyrene-3,6,8-trisulfonic acid trisodium salt (HPTS), can be detected by fluorescence spectroscopy. The change in the fluorescence signal over time is directly related to the change in the concentration of free fluorophore. The conversion was made possible by setting up a calibration curve with a subsequent linear fit (R^2≥0.99). The experiments of the kinetics measurements with the OPTS/4-MUD substrates assay were performed in duplicates. The reaction mixture without the protein of interest, which served as the respective control, was subtracted from the protein-containing batch. The buffer used for OPTS measurements (hydrophilic substrate) contained 0.3 M HOAc, 0.3 M MES, 0.6 M TRIS and 0.6 M NaCl (4×AMT buffer; acetate, MES, TRIS). For 4-MUD substrate measurements (lipophilic substrate) 0.04 M CHAPS was added in addition. The buffer (AMT) was prepared in four-fold concentration (4×AMT) and was added at 25% (v/v) to the reaction mix. All measurements were carried out in multiwell plates with a preparation volume of 300 μL (75 μL 4×AMT buffer, 30 μL substrate, 75 μL enzyme-containing solution, x μL additive, 300 μL ad. H2O) Unless otherwise stated, all fluorescence spectroscopic measurements were performed using 96-well, clear-bottom, non-binding plates (Greiner, Austria) on a SpectraMax M3 PlateReader (Molecular Device, USA) and recorded using SoftMax Pro 7.0.3 software (Molecular Device, USA). The OPTS assay measurements were typically taken at 25° C., λex=403 nm and λem=512 nm and the 4-MUD assay measurements were taken at 25° C., λex=330 nm and λem=450 nm. For evaluation, the detected fluorescence signal for a reaction mix without protein of interest (control) was subtracted from the reaction mix with protein of interest (e.g. DS). Hydrolysis of the substrate has been measured by detecting the fluorescence intensity of the released chromophore (4-MU or HPTS) immediately following mixing in real-time for a few minutes up to 5 hours depending on fluorescence intensity. The changes in the fluorescence signal over time were subsequently converted to hydrolytic activity using previously established calibration curves with a linear fit (R^2≥0.99).
The target concentration of OPTS was 25 μM and the target concentration of 4-MUD was 30 μM. […]
as §1

[4] = system: porcine pancreatic lipase, PPL (crude extract); assay: OPTS assay: enzymatic hydrolysis of OPTS by PPL; type: biochemical
Procedure: An aqueous solution of commercially purchased porcine pancreatic lipase, PPL, was prepared (Sigma-Aldrich, US; 100-500 Units/mg protein). According to the manufacturer, this powder mainly contains triacylglycerol lipase, but since it is a homogenised powder from freeze-dried porcine pancreas (crude extract), it is likely to further contain other carboxylesterases and lipases. These enzymes hydrolyse fatty acid esters and this extract was therefore selected for functional tests.
To record the reaction kinetics of the substrate OPTS with PPL, an aqueous 10 mg/mL PPL solution was prepared by adding 10 mg PPL to 1 mL H2O. The suspension was vortexed for 2 min and centrifuged at 14,000×g for 5 min before the supernatant was removed.
A reaction mixture of 75 μL AMT buffer (pH=7), 165 μL H2O and 30 μL of an aqueous 10 mg*mL-1 PPL solution was started with the addition of 30 μL of a 250 μM OPTS solution. The increase in fluorescence was recorded over 30 min with 15 s measuring intervals (n=2). As control (blank) served a preparation without PPL (only with H2O). […] The calculated reaction rate is 2.89±0.08*10-5 units (μmol*min-1). […]
Further inhibition of the non-ionic detergent polysorbate 20 (Tween 20) was tested. […] No inhibition was observed until 50 μg/ml at pH 7.0, but higher concentrations reduced the fluorescence signal (FIG. 5B). […]

[5] = derivable from literature; cited from earlier work

SMILES	effect of inhibitor on hydrolytic activity in the 9 antibody samples, OPTS assay [1]	influence of inhibitors on hydrolytic activity of the lipase, 4-MUD substrate [2]	effect of inhibitor on hydrolytic activity in the 9 antibody samples, 4-MUD assay [3]	CMC [5]	further results
O=S(=O)(F)Cc1ccccc1 [PMSF]	Neither orlistat, nor PMSF or EDTA significantly reduced	only minor effects	sight inhibition		
CCCCCCCCCCCC(=O)OCCOCCOCCOCCOCCOCCOCCOCCOCCOCCOCCOCCOCCOCCOCCOCCOCCOCCOCCOCCOCC(OCCOCCOCCOCCOCCOCCOCCOCCOCCOCCOCCOCCOCCOCCOCCOCCOCCOCCOCCOCCO)C1OCC(OCCOCCOCCOCCOCCOCCOCCOCCOCCOCCOCCOCCOCCOCCOCCOCCOCCOCCOCCOCCO)C1OCCOCCOCCOCCOCCOCCOCCOCCOCCOCCOCCOCCOCCOCCOCCOCCOCCOCCOCCOCCO (stereo not drawn) [Polysorbate 20, polyoxyethylene (20) sorbitan monolaurate]					concentration until which no inhibition was observed ([4]; PPL, pH 7.0, target concentrations 200 μg/mL to 0.098 μg/mL tested): ≤ 50 µg/mL
CCCCCCCCCCC[C@@H](C[C@@H]1OC(=O)[C@H]1CCCCCC)OC(=O)[C@H](CC(C)C)NC=O [orlistat]	Neither orlistat, nor PMSF or EDTA significantly reduced	almost completely inhibited	pronounced inhibition; also recorded: strong inhibition		residual activities with orlistat ([3]; 10 μM orlistat, % of hydrolysis activity without inhibitor): 18-21%
C[C@H](CCC(=O)NCCC[N+](C)(C)CC(O)CS(=O)(=O)[O-])[C@H]1CC[C@H]2[C@@H]3[C@H](O)C[C@@H]4C[C@H](O)CC[C@]4(C)[C@H]3C[C@H](O)[C@]12C (stereo partly drawn) [CHAPSO, 3-([3-Cholamidopropyl)dimethylammonio]-2-hydroxy-1-propanesulfonate]				about 8 mM	
O=C(O)CN(CCN(CC(=O)O)CC(=O)O)CC(=O)O [EDTA]	Neither orlistat, nor PMSF or EDTA significantly reduced; also recorded: no inhibition	only minor effects	hardly any inhibition; also recorded: no inhibition		
C[C@H](CCC(=O)NCCC[N+](C)(C)CCCS(=O)(=O)[O-])[C@H]1CC[C@H]2[C@@H]3[C@H](O)C[C@@H]4C[C@H](O)CC[C@]4(C)[C@H]3C[C@H](O)[C@]12C [CHAPS, 3-[(3-cholamidopropyl)dimethylammonio]-1-propanesulfonate]				about 6 mM	activity in the presence of 10 mM CHAPS ([4]; 1 mg*mL-1 PPL, 25 μM OPTS, AMT pH 7, 10 mM CHAPS): 6.16*10^−7 units
CCCCCCCCCCCC[N+](C)(C)CCCS(=O)(=O)[O-] [Zwittergent 3-12, n-Dodecyl-N,N-dimethyl-3-ammonio-1-propanesulfonate]				2 to 4 mM	

Source: patent US20250207175A1, “METHOD FOR DETECTING CONTAMINATING CARBOXYLESTERASE ACTIVITY” (Boehringer Ingelheim International GmbH, priority 2022, published 2025)
